Values of other authors, collected in patent publication US6777561B1, “Compounds” (AstraZeneca Canada Inc., priority 1998, dated 2004).

Tests used:
[1] = tested on: δ receptor; conditions: background statement on non-peptidic δ antagonists
[2] = background statement on non-peptidic δ antagonists

Oc1ccc2c3c1O[C@H]1c4[nH]c5ccccc5c4C[C@@]4(O)[C@@H](C2)N(CC2CC2)CC[C@]314 [naltrindole]
selectivity for the δ receptor vs. μ receptor binding [1]: < 10 fold
analgesic activity [2]: no analgesic activity
